Data reported in article PMC10136135, “Electronic Circular Dichroism Detects Conformational Changes Associated with Proteasome Gating Confirmed Using AFM Imaging” (Biomolecules, 2023).
Where a SMILES comes first, the peptide text is derived from it.

How the values were obtained:
[1] = test system: T1, yWT20S / y20S WT (wild type yeast 20S proteasome); assay: ECD spectral change (difference spectrum); type: binding, Saccharomyces cerevisiae; conditions: 25 nM 20S, 150 mM Tris, 100 mM NaCl, pH 7.6, 22 °C; H2T4 1 µM in text, 10 µM in figure legend; allosteric, gate opening
T1 construct: gene SCL1; 20S core particle, 28 subunits (alpha-beta-beta-alpha heptameric rings); with Proteasome subunit beta type-1; Proteasome subunit beta type-2; Proteasome subunit beta type-3; Proteasome subunit beta type-4; Proteasome subunit beta type-5; Proteasome subunit beta type-6; Proteasome subunit beta type-7

[2] = test system: T2, h20S (human 20S proteasome); assay: AFM imaging of gate conformers; also ECD shift; type: binding; conditions: 5 mM Tris-HCl pH 7; at least 15 min after addition; control 7 ± 1% open; ECD at 1 µM, 25 nM h20S, pH 7.6, 22 °C; allosteric, gate opening
T2 construct: gene PSMA1; 20S core particle, 28 subunits (alpha-beta-beta-alpha heptameric rings); commercial, Enzo Life Sciences (AFM); H2T4 at the alpha ring gate, Suc-LLVY-MCA at the beta5 (ChT-L) site; with Proteasome subunit beta type-6; Proteasome subunit beta type-7; Proteasome subunit beta type-3; Proteasome subunit beta type-2; Proteasome subunit beta type-1; Proteasome subunit beta type-4

[3] = test system: T2, h20S (human 20S proteasome); assay: AFM imaging of gate conformers; type: binding; conditions: 5 mM Tris-HCl pH 7, 1% DMSO; beta5 (ChT-L) site

Compound | ECD spectral change (difference spectrum) [1] | % open conformers at 0.2 μM [2] [%] | % open conformers at 100 μM [3]
C[n+]1ccc(-c2c3nc(c(-c4cc[n+](C)cc4)c4ccc([nH]4)c(-c4cc[n+](C)cc4)c4nc(c(-c5cc[n+](C)cc5)c5ccc2[nH]5)C=C4)C=C3)cc1 [H2T4, 5,10,15,20-tetrakis-4-N-methylpirydyl porphyrin] | the addition of H2T4 induces changes in the ECD spectra of yWT20S | 22 ± 1.3 | 
Cc1cc(=O)oc2cc(NC(=O)[C@H](Cc3ccc(O)cc3)NC(=O)[C@@H](NC(=O)[C@H](CC(C)C)NC(=O)[C@H](CC(C)C)NC(=O)CCC(=O)O)C(C)C)ccc12 [SucLLVY-MCA, succinyl-LeuLeuValTyr-7-amino-4-methylcoumarin] (HELM PEPTIDE1{[O=C(O)CCC(=O)[*:2]].L.L.V.Y.[Cc1cc(=O)oc2cc(N[*:1])ccc12]}$$$$V2.0) |  |  | addition of the model substrate or the porphyrin ligand shifted the conformational equilibrium
